Assay results reported in publication PMC10721329, “Quisinostat is a brain-penetrant radiosensitizer in glioblastoma” (JCI Insight, 2023).
Several values for one entry are separate records, joined by “and”; a condition that tells them apart may be missing. Equal entries are not always repeated.

Key:
Assay in all cases: CellTiter-Glo dose-response cell viability assay
Format in all cases: cell-based, human
U87 GBM cell line = tested on: U87 GBM cell line
Protocol: (§1) QST (JNJ-26481585) is a second-generation hydroxamic acid harboring remarkable selectivity toward class I HDACs, with a biochemical IC50 of 0.1 nM for HDAC1 ([13]). […] To determine the cytotoxic effects of QST, we performed a dose-titration cell viability assay in 7 patient-derived GSC lines (BT145, GB187, GB239, GB282, GB71, GB82, and GB126) and 1 long-term serum-grown human GBM cell line (U87). Because GBMs display a high degree of intratumoral heterogeneity, we used GSCs derived from both primary and recurrent GBMs that harbored distinct genetic mutations or aberrations, growth rates, MGMT promoter methylation status, and gene expression profiles (Supplemental Figure 1; supplemental material available online with this article; https://doi.org/10.1172/jci.insight.167081DS1). Cell lines were treated with various concentrations of QST (10–1000 nM), and cell viability was measured 3–5 days later (Figure 1, A and B). […] Treatment with QST at the IC50 induced significant inhibition of proliferation (Ki67) and an increase in programmed cell death (cleaved caspase 3) in 2 different GSC lines (Figure 1, C and D). Additional analyses confirmed that QST induces apoptosis after short-term treatment through increased staining of the apoptotic marker annexin V (Figure 2A) and cell cycle arrest (in G2- or S-phase; Figure 2B and Supplemental Figure 1B).
(§2) GSCs were seeded in laminin-coated tissue culture–treated 96-well plates (clear bottom, white plate; Corning) at a density of 1000–5000 cells per well (cell line dependent) in GSC media. U87-MG were seeded using their normal growth conditions without laminin (10% bovine calf serum in DMEM). All cells were incubated at 37°C and allowed to adhere overnight. The next day, cells were treated with incremental concentrations of QST (Selleckchem; 0, 10, 25, 50, 100, 250, 500, and 1000 nM) diluted in media. Cells treated without QST were treated with DMSO diluted in media. Following treatment with QST, cells were grown for 3 to 5 days (cell line dependent), and cell viability was measured and quantified. All cell viability measurements were performed using the CellTiter-Glo luminescent cell viability assay (Promega) following the manufacturer’s instructions. For the sulforhodamine B colorimetric assay for cytotoxicity, the protocol was performed as described elsewhere ([33]). All cell viability results represent the mean of at least 3 biological replicates, each containing 3 technical replicates.

[1] = tested on: GB239 patient-derived GSC line
Protocol: as §1, §2

[2] = tested on: BT145 patient-derived GSC line
Protocol: as §1, §2

[3] = tested on: GB71 patient-derived GSC line
Protocol: as §1, §2

[4] = tested on: GB82 patient-derived GSC line
Protocol: as §1, §2

[5] = Homo sapiens, QST 10 nM (log[nM] 1), read-out: Cell viability (fraction of DMSO control)
[6] = Homo sapiens, QST 25 nM (log[nM] 1.39794), read-out: Cell viability (fraction of DMSO control)
[7] = Homo sapiens, QST 50 nM (log[nM] 1.69897), read-out: Cell viability (fraction of DMSO control)
[8] = Homo sapiens, QST 100 nM (log[nM] 2), read-out: Cell viability (fraction of DMSO control)
[9] = Homo sapiens, QST 250 nM (log[nM] 2.39794), read-out: Cell viability (fraction of DMSO control)
[10] = Homo sapiens, QST 500 nM (log[nM] 2.69897), read-out: Cell viability (fraction of DMSO control)
[11] = Homo sapiens, QST 1000 nM (log[nM] 3), read-out: Cell viability (fraction of DMSO control)

Cn1cc(CNCC2CCN(c3ncc(C(=O)NO)cn3)CC2)c2ccccc21 [QST, quisinostat]
viability at 0.01 µM (U87 GBM cell line; Homo sapiens, U87LN, QST 10 nM (log[nM] 1), read-out: Cell viability (fraction of DMSO control)): 83.5%
viability at 0.025 µM (U87 GBM cell line; Homo sapiens, U87LN, QST 25 nM (log[nM] 1.39794), read-out: Cell viability (fraction of DMSO control)): 56.7%
viability at 0.05 µM (U87 GBM cell line; Homo sapiens, U87LN, QST 50 nM (log[nM] 1.69897), read-out: Cell viability (fraction of DMSO control)): 31.6%
viability at 0.1 µM (U87 GBM cell line; Homo sapiens, U87LN, QST 100 nM (log[nM] 2), read-out: Cell viability (fraction of DMSO control)): 21.5%
viability at 0.25 µM (U87 GBM cell line; Homo sapiens, U87LN, QST 250 nM (log[nM] 2.39794), read-out: Cell viability (fraction of DMSO control)): 12.8%
viability at 0.5 µM (U87 GBM cell line; Homo sapiens, U87LN, QST 500 nM (log[nM] 2.69897), read-out: Cell viability (fraction of DMSO control)): 9.84%
viability at 1 µM (U87 GBM cell line; Homo sapiens, U87LN, QST 1000 nM (log[nM] 3), read-out: Cell viability (fraction of DMSO control)): 8.54%
IC50 (U87 GBM cell line; Homo sapiens, U87, 3-5 days): 28 nM
Cell viability (fraction of DMSO control) (U87 GBM cell line; U87LN, QST 10 nM (log[nM] 1)): 0.852 and 0.8354
Cell viability (fraction of DMSO control) (U87 GBM cell line; U87LN, QST 25 nM (log[nM] 1.39794)): 0.6316 and 0.5286
Cell viability (fraction of DMSO control) (U87 GBM cell line; U87LN, QST 50 nM (log[nM] 1.69897)): 0.3812 and 0.3792
Cell viability (fraction of DMSO control) (U87 GBM cell line; U87LN, QST 100 nM (log[nM] 2)): 0.2379 and 0.236
Cell viability (fraction of DMSO control) (U87 GBM cell line; U87LN, QST 250 nM (log[nM] 2.39794)): 0.1476 and 0.1204
Cell viability (fraction of DMSO control) (U87 GBM cell line; U87LN, QST 500 nM (log[nM] 2.69897)): 0.1063 and 0.09789
Cell viability (fraction of DMSO control) (U87 GBM cell line; U87LN, QST 1000 nM (log[nM] 3)): 0.08873 and 0.08769
Cell viability (fraction of DMSO control) ([1]; GB239x3, QST 10 nM (log[nM] 1)): 0.8159 and 0.818
Cell viability (fraction of DMSO control) ([1]; GB239x3, QST 25 nM (log[nM] 1.39794)): 0.6846 and 0.6788
Cell viability (fraction of DMSO control) ([1]; GB239x3, QST 50 nM (log[nM] 1.69897)): 0.5694 and 0.5366
Cell viability (fraction of DMSO control) ([1]; GB239x3, QST 100 nM (log[nM] 2)): 0.3389 and 0.3234
Cell viability (fraction of DMSO control) ([1]; GB239x3, QST 250 nM (log[nM] 2.39794)): 0.1954 and 0.198
Cell viability (fraction of DMSO control) ([1]; GB239x3, QST 500 nM (log[nM] 2.69897)): 0.1408 and 0.1494
Cell viability (fraction of DMSO control) ([1]; GB239x3, QST 1000 nM (log[nM] 3)): 0.1055 and 0.1137
viability at 0.01 µM ([1]; Homo sapiens, GB239x3, QST 10 nM (log[nM] 1), read-out: Cell viability (fraction of DMSO control)): 79.7%
viability at 0.025 µM ([1]; Homo sapiens, GB239x3, QST 25 nM (log[nM] 1.39794), read-out: Cell viability (fraction of DMSO control)): 64%
viability at 0.05 µM ([1]; Homo sapiens, GB239x3, QST 50 nM (log[nM] 1.69897), read-out: Cell viability (fraction of DMSO control)): 46.2%
viability at 0.1 µM ([1]; Homo sapiens, GB239x3, QST 100 nM (log[nM] 2), read-out: Cell viability (fraction of DMSO control)): 26%
viability at 0.25 µM ([1]; Homo sapiens, GB239x3, QST 250 nM (log[nM] 2.39794), read-out: Cell viability (fraction of DMSO control)): 15.6%
viability at 0.5 µM ([1]; Homo sapiens, GB239x3, QST 500 nM (log[nM] 2.69897), read-out: Cell viability (fraction of DMSO control)): 11.2%
viability at 1 µM ([1]; Homo sapiens, GB239x3, QST 1000 nM (log[nM] 3), read-out: Cell viability (fraction of DMSO control)): 8.92%
IC50 ([1]; Homo sapiens, GB239, 3-5 days): 41 nM
IC50 ([2]; Homo sapiens, 3-5 days): 75 nM
viability at 0.01 µM ([2]; Homo sapiens, QST 10 nM (log[nM] 1), no IR, read-out: Cell viability (fraction of DMSO control)): 70%
viability at 0.025 µM ([2]; Homo sapiens, QST 25 nM (log[nM] 1.39794), no IR, read-out: Cell viability (fraction of DMSO control)): 64%
viability at 0.05 µM ([2]; Homo sapiens, QST 50 nM (log[nM] 1.69897), no IR, read-out: Cell viability (fraction of DMSO control)): 40%
viability at 0.1 µM ([2]; Homo sapiens, QST 100 nM (log[nM] 2), no IR, read-out: Cell viability (fraction of DMSO control)): 34.2%
viability at 0.25 µM ([2]; Homo sapiens, QST 250 nM (log[nM] 2.39794), no IR, read-out: Cell viability (fraction of DMSO control)): 25.7%
viability at 0.5 µM ([2]; Homo sapiens, QST 500 nM (log[nM] 2.69897), no IR, read-out: Cell viability (fraction of DMSO control)): 18.6%
viability at 1 µM ([2]; Homo sapiens, QST 1000 nM (log[nM] 3), no IR, read-out: Cell viability (fraction of DMSO control)): 13%
Cell viability (fraction of DMSO control) ([2]; QST 10 nM (log[nM] 1), no IR): 0.7896 and 0.7644
Cell viability (fraction of DMSO control) ([2]; QST 25 nM (log[nM] 1.39794), no IR): 0.7548 and 0.7039
Cell viability (fraction of DMSO control) ([2]; QST 50 nM (log[nM] 1.69897), no IR): 0.4986 and 0.5266
Cell viability (fraction of DMSO control) ([2]; QST 100 nM (log[nM] 2), no IR): 0.3524 and 0.2775
Cell viability (fraction of DMSO control) ([2]; QST 250 nM (log[nM] 2.39794), no IR): 0.3528 and 0.3396
Cell viability (fraction of DMSO control) ([2]; QST 500 nM (log[nM] 2.69897), no IR): 0.2416 and 0.229
Cell viability (fraction of DMSO control) ([2]; QST 1000 nM (log[nM] 3), no IR): 0.1715
IC50 ([3]; Homo sapiens, 3-5 days): 29 nM
viability at 0.01 µM [3, 5]: 76.3%
viability at 0.025 µM [3, 6]: 68.5%
viability at 0.05 µM [3, 7]: 59.2%
viability at 0.1 µM [3, 8]: 46.1%
viability at 0.25 µM [3, 9]: 31.5%
viability at 0.5 µM [3, 10]: 24.4%
viability at 1 µM [3, 11]: 21.1%
Cell viability (fraction of DMSO control) ([3]; QST 10 nM (log[nM] 1)): 0.687 and 0.6848
Cell viability (fraction of DMSO control) ([3]; QST 25 nM (log[nM] 1.39794)): 0.6366 and 0.6132
Cell viability (fraction of DMSO control) ([3]; QST 50 nM (log[nM] 1.69897)): 0.5332 and 0.5323
Cell viability (fraction of DMSO control) ([3]; QST 100 nM (log[nM] 2)): 0.436 and 0.4247
Cell viability (fraction of DMSO control) ([3]; QST 250 nM (log[nM] 2.39794)): 0.3077 and 0.3032
Cell viability (fraction of DMSO control) ([3]; QST 500 nM (log[nM] 2.69897)): 0.2399 and 0.2412
Cell viability (fraction of DMSO control) ([3]; QST 1000 nM (log[nM] 3)): 0.2213 and 0.2152
IC50 ([4]; Homo sapiens, 3-5 days): 65 nM
viability at 0.01 µM [4, 5]: 78.8%
viability at 0.025 µM [4, 6]: 77.1%
viability at 0.05 µM [4, 7]: 66.9%
viability at 0.1 µM [4, 8]: 51.1%
viability at 0.25 µM [4, 9]: 37.7%
viability at 0.5 µM [4, 10]: 30.8%
viability at 1 µM [4, 11]: 26.5%
Cell viability (fraction of DMSO control) ([4]; QST 10 nM (log[nM] 1)): 0.7668 and 0.8052
Cell viability (fraction of DMSO control) ([4]; QST 25 nM (log[nM] 1.39794)): 0.6655 and 0.6833
Cell viability (fraction of DMSO control) ([4]; QST 50 nM (log[nM] 1.69897)): 0.651 and 0.6783
Cell viability (fraction of DMSO control) ([4]; QST 100 nM (log[nM] 2)): 0.4804 and 0.526
Cell viability (fraction of DMSO control) ([4]; QST 250 nM (log[nM] 2.39794)): 0.3237 and 0.3695
Cell viability (fraction of DMSO control) ([4]; QST 500 nM (log[nM] 2.69897)): 0.2733 and 0.2932
Cell viability (fraction of DMSO control) ([4]; QST 1000 nM (log[nM] 3)): 0.2807 and 0.2449
